In PubChem BioAssay (NCI):
“And” between values parts separate entries of the source, which are not always exact repeats. Equal values may be shown once.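 Exposure lasted 48 hours, with cells grown in 96-well plates and compounds tested at five concentrations. GI50 = concentration required for 50% inhibition of growth. The concentration for full growth arrest is given as TGI.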

Tests used:
Experiment in all cases: NCI-60 cell line screen, 48 h; in the data active = GI50 below about 0.43 µM; inactive = the rest
HL-60(TB) leukemia = test system: HL-60(TB) leukemia
CCRF-CEM leukemia = test system: CCRF-CEM leukemia
NCI-H522 lung = test system: NCI-H522 lung
SNB-78 CNS = test system: SNB-78 CNS
UACC-62 melanoma = test system: UACC-62 melanoma
RXF-631 renal = test system: RXF-631 renal
786-0 renal = test system: 786-0 renal
NCI-H226 lung = test system: NCI-H226 lung
DLD-1 colon = test system: DLD-1 colon
K-562 leukemia = test system: K-562 leukemia
MALME-3M melanoma = test system: MALME-3M melanoma
UO-31 renal = test system: UO-31 renal
LXFL 529 NSCLC = test system: LXFL 529 NSCLC
SF-295 CNS = test system: SF-295 CNS
SF-268 CNS = test system: SF-268 CNS
SW-620 colon = test system: SW-620 colon
IGROV1 ovarian = test system: IGROV1 ovarian
A549 NSCLC = test system: A549 NSCLC
SN12C renal = test system: SN12C renal
HCT-15 colon = test system: HCT-15 colon
SK-MEL-2 melanoma = test system: SK-MEL-2 melanoma
EKVX NSCLC = test system: EKVX NSCLC
OVCAR-4 ovarian = test system: OVCAR-4 ovarian
HOP-92 NSCLC = test system: HOP-92 NSCLC
CAKI-1 renal = test system: CAKI-1 renal
DMS 114 small cell lung = test system: DMS 114 small cell lung
M14 melanoma = test system: M14 melanoma
M19-MEL melanoma = test system: M19-MEL melanoma
SNB-75 CNS = test system: SNB-75 CNS
UACC-257 melanoma = test system: UACC-257 melanoma
COLO 205 colon = test system: COLO 205 colon
TK-10 renal = test system: TK-10 renal
A498 renal = test system: A498 renal
HCC-2998 colon = test system: HCC-2998 colon
RXF 393 renal = test system: RXF 393 renal
SK-OV-3 ovarian = test system: SK-OV-3 ovarian
NCI-H23 lung = test system: NCI-H23 lung
DMS 273 small cell lung = test system: DMS 273 small cell lung
SK-MEL-5 melanoma = test system: SK-MEL-5 melanoma
LOX IMVI melanoma = test system: LOX IMVI melanoma
ACHN renal = test system: ACHN renal
RPMI-8226 leukemia = test system: RPMI-8226 leukemia
KM12 colon = test system: KM12 colon
HT29 colon = test system: HT29 colon
MOLT-4 leukemia = test system: MOLT-4 leukemia
KM20L2 colon = test system: KM20L2 colon
OVCAR-5 ovarian = test system: OVCAR-5 ovarian
OVCAR-3 ovarian = test system: OVCAR-3 ovarian
SF-539 CNS = test system: SF-539 CNS
SK-MEL-28 melanoma = test system: SK-MEL-28 melanoma
HCT-116 colon = test system: HCT-116 colon
OVCAR-8 ovarian = test system: OVCAR-8 ovarian
HOP-18 NSCLC = test system: HOP-18 NSCLC
U251 CNS = test system: U251 CNS
SNB-19 CNS = test system: SNB-19 CNS
XF 498 CNS = test system: XF 498 CNS
HOP-62 NSCLC = test system: HOP-62 NSCLC
SR leukemia = test system: SR leukemia
NCI-H460 lung = test system: NCI-H460 lung
MCF7 breast = test system: MCF7 breast
T-47D breast = test system: T-47D breast
MDA-N = test system: MDA-N
BT-549 breast = test system: BT-549 breast
MDA-MB-435 = test system: MDA-MB-435
DU-145 prostate = test system: DU-145 prostate
NCI/ADR-RES ovarian = test system: NCI/ADR-RES ovarian

NC1=C(O)c2cccc3cccc(c23)C1=O
> 100 µM: TGI (HL-60(TB) leukemia) | TGI (CCRF-CEM leukemia) | TGI (NCI-H522 lung) | TGI (SNB-78 CNS) | TGI (UACC-62 melanoma) | TGI (RXF-631 renal) | TGI (786-0 renal) | TGI (NCI-H226 lung) | TGI (DLD-1 colon) | TGI (K-562 leukemia) | TGI (MALME-3M melanoma) | TGI (UO-31 renal) | TGI (LXFL 529 NSCLC) | TGI (SF-295 CNS) | TGI (SF-268 CNS) | TGI (SW-620 colon) | TGI (IGROV1 ovarian) | TGI (A549 NSCLC) | TGI (SN12C renal) | TGI (HCT-15 colon) | TGI (SK-MEL-2 melanoma) | TGI (EKVX NSCLC) | TGI (OVCAR-4 ovarian) | TGI (HOP-92 NSCLC) | TGI (CAKI-1 renal) | TGI (DMS 114 small cell lung) | TGI (M14 melanoma) | TGI (M19-MEL melanoma) | TGI (SNB-75 CNS) | TGI (UACC-257 melanoma) | TGI (COLO 205 colon) | TGI (TK-10 renal) | TGI (A498 renal) | TGI (HCC-2998 colon) | TGI (RXF 393 renal) | TGI (SK-OV-3 ovarian) | TGI (NCI-H23 lung) | TGI (DMS 273 small cell lung) | TGI (SK-MEL-5 melanoma) | TGI (LOX IMVI melanoma) | TGI (ACHN renal) | TGI (RPMI-8226 leukemia) | TGI (KM12 colon) | TGI (HT29 colon) | TGI (MOLT-4 leukemia) | TGI (KM20L2 colon) | TGI (OVCAR-5 ovarian) | TGI (OVCAR-3 ovarian) | TGI (SF-539 CNS) | TGI (SK-MEL-28 melanoma) | TGI (HCT-116 colon) | TGI (OVCAR-8 ovarian) | TGI (HOP-18 NSCLC) | TGI (U251 CNS) | TGI (SNB-19 CNS)

COc1ccc(C2COc3c(ccc(OC)c3OC)C2=O)cc1OC (stereo not drawn)
> 100 µM: TGI (HL-60(TB) leukemia) | TGI (CCRF-CEM leukemia) | TGI (NCI-H522 lung) | TGI (XF 498 CNS) | TGI (SNB-78 CNS) | TGI (UACC-62 melanoma) | TGI (786-0 renal) | TGI (NCI-H226 lung) | TGI (DLD-1 colon) | TGI (K-562 leukemia) | TGI (MALME-3M melanoma) | TGI (UO-31 renal) | TGI (LXFL 529 NSCLC) | TGI (SF-295 CNS) | TGI (SF-268 CNS) | TGI (SW-620 colon) | TGI (IGROV1 ovarian) | TGI (A549 NSCLC) | TGI (SN12C renal) | TGI (EKVX NSCLC) | TGI (OVCAR-4 ovarian) | TGI (HOP-92 NSCLC) | TGI (CAKI-1 renal) | TGI (DMS 114 small cell lung) | TGI (M14 melanoma) | TGI (M19-MEL melanoma) | TGI (SNB-75 CNS) | TGI (UACC-257 melanoma) | TGI (COLO 205 colon) | TGI (TK-10 renal) | TGI (A498 renal) | TGI (HCC-2998 colon) | TGI (RXF 393 renal) | TGI (SK-OV-3 ovarian) | TGI (NCI-H23 lung) | TGI (HOP-62 NSCLC) | TGI (SK-MEL-5 melanoma) | TGI (LOX IMVI melanoma) | TGI (ACHN renal) | TGI (SR leukemia) | TGI (NCI-H460 lung) | TGI (RPMI-8226 leukemia) | TGI (KM12 colon) | TGI (HT29 colon) | TGI (MOLT-4 leukemia) | TGI (KM20L2 colon) | TGI (OVCAR-3 ovarian) | TGI (SF-539 CNS) | TGI (SK-MEL-28 melanoma) | TGI (HCT-116 colon) | TGI (OVCAR-8 ovarian) | TGI (HOP-18 NSCLC) | TGI (U251 CNS) | TGI (SNB-19 CNS)

CC[C@@]1(OP(=O)(O)O)C(=O)OCc2c1cc1n(c2=O)Cc2cc3ccccc3nc2-1
3.31 µM and 17.3 µM: TGI (SNB-75 CNS)
88 µM: TGI (TK-10 renal)
0.585 µM: TGI (LOX IMVI melanoma)
0.747 µM: TGI (U251 CNS)
9.44 µM: TGI (SW-620 colon)
7.36 µM and 5.05 µM: TGI (SK-MEL-2 melanoma)
0.458 µM and 0.46 µM: TGI (SK-MEL-5 melanoma)
44.4 µM: TGI (HOP-18 NSCLC)
57.7 µM: TGI (SK-MEL-28 melanoma)
0.867 µM: TGI (T-47D breast)
2.21 µM and 9.34 µM: TGI (XF 498 CNS)
0.458 µM: GI50 (KM20L2 colon)
0.537 µM and 0.373 µM: TGI (SF-539 CNS)
1.51 µM: TGI (HCT-116 colon)
0.866 µM and 1.97 µM: TGI (SF-295 CNS)
7.33 µM and 12.3 µM: TGI (A549 NSCLC)
0.194 µM: TGI (DMS 273 small cell lung)
0.147 µM and 0.395 µM: TGI (MOLT-4 leukemia)
2.7 µM and 6.46 µM: TGI (HOP-92 NSCLC)
1.04 µM: TGI (CAKI-1 renal)
5.64 µM: TGI (COLO 205 colon)
6.08 µM and 0.619 µM: TGI (SN12C renal)
6.06 µM and 8.45 µM: TGI (HCC-2998 colon)
5.28 µM and 9.45 µM: TGI (SF-268 CNS)
6.44 µM and 4.85 µM: TGI (OVCAR-4 ovarian)
4.55 µM: TGI (BT-549 breast)
0.118 µM and 0.319 µM: TGI (CCRF-CEM leukemia)
0.404 µM and 1.48 µM: TGI (UACC-62 melanoma)
2.27 µM and 4.58 µM: TGI (RPMI-8226 leukemia)
0.625 µM and 1.03 µM: TGI (UO-31 renal)
1.47 µM and 0.248 µM: TGI (HOP-62 NSCLC)
0.853 µM and 0.26 µM: TGI (ACHN renal)
0.598 µM: TGI (DU-145 prostate)
inactive: GI50 (XF 498 CNS) 1.88 µM | GI50 (SNB-78 CNS) 3.81 µM | GI50 (DLD-1 colon) 2.56 µM | GI50 (K-562 leukemia) 0.572 µM | GI50 (MALME-3M melanoma) 1.09 µM | GI50 (SK-MEL-2 melanoma) 1.85 µM | GI50 (EKVX NSCLC) 2.13 µM | GI50 (HOP-92 NSCLC) 1.24 µM | GI50 (COLO 205 colon) 1.21 µM | GI50 (TK-10 renal) 4.62 µM | GI50 (HCC-2998 colon) 1.57 µM | GI50 (HT29 colon) 0.428 µM | GI50 (OVCAR-5 ovarian) 0.553 µM | GI50 (OVCAR-3 ovarian) 0.93 µM | GI50 (SK-MEL-28 melanoma) 1.86 µM | GI50 (OVCAR-8 ovarian) 0.427 µM
0.188 µM: TGI (HL-60(TB) leukemia)
3.79 µM: TGI (OVCAR-3 ovarian)
6.47 µM and 2.05 µM: TGI (M19-MEL melanoma)
2.11 µM: TGI (MDA-MB-435)
70.8 µM: TGI (LXFL 529 NSCLC)
3.47 µM: TGI (KM12 colon)
0.559 µM and 0.96 µM: TGI (A498 renal)
39.3 µM: TGI (SNB-19 CNS)
2.58 µM and 3.86 µM: TGI (UACC-257 melanoma)
0.0566 µM: TGI (SR leukemia)
3.52 µM and 0.81 µM: TGI (RXF 393 renal)
1.16 µM and 0.66 µM: TGI (NCI-H226 lung)
4.59 µM: TGI (MDA-N)
4.51 µM and 5.58 µM: TGI (IGROV1 ovarian)
9.87 µM and 14 µM: TGI (MALME-3M melanoma)
> 100 µM: TGI (SNB-78 CNS) | TGI (K-562 leukemia) | TGI (EKVX NSCLC)
1.55 µM: TGI (MCF7 breast)
0.715 µM: TGI (NCI/ADR-RES ovarian)
0.666 µM: TGI (NCI-H460 lung)
0.509 µM and 3.37 µM: TGI (DMS 114 small cell lung)
7.98 µM and 6.46 µM: TGI (SK-OV-3 ovarian)
3 µM and 1.88 µM: TGI (NCI-H522 lung)
1.87 µM and 5.28 µM: TGI (M14 melanoma)
active: GI50 (NCI-H522 lung) 0.0688 µM | GI50 (UACC-62 melanoma) 0.0269 µM | GI50 (786-0 renal) 0.0367 µM | GI50 (NCI-H226 lung) 0.0379 µM | GI50 (UO-31 renal) 0.099 µM | GI50 (SF-295 CNS) 0.0249 µM | GI50 (SF-268 CNS) 0.0774 µM | GI50 (IGROV1 ovarian) 0.377 µM | GI50 (A549 NSCLC) 0.12 µM | GI50 (SN12C renal) 0.024 µM | GI50 (DMS 114 small cell lung) 0.0678 µM | GI50 (M14 melanoma) 0.173 µM | GI50 (M19-MEL melanoma) 0.25 µM | GI50 (SNB-75 CNS) 0.143 µM | GI50 (A498 renal) 0.128 µM | GI50 (RXF 393 renal) 0.144 µM | GI50 (SK-OV-3 ovarian) 0.105 µM | GI50 (NCI-H23 lung) 0.0827 µM | GI50 (HOP-62 NSCLC) 0.0131 µM | GI50 (SK-MEL-5 melanoma) 0.126 µM | GI50 (ACHN renal) 0.0243 µM | GI50 (RPMI-8226 leukemia) 0.187 µM | GI50 (SF-539 CNS) 0.0472 µM | GI50 (HOP-18 NSCLC) 0.408 µM | GI50 (SNB-19 CNS) 0.143 µM
